Measured values as given in ChEMBL document CHEMBL1137683, “Synthesis and in vitro cysticidal activity of new benzimidazole derivatives” (Eur J Med Chem, 2009).

Experiments:
[1] = Octanol-water partition coefficient, log P of the compound; type: physicochemical
Taenia crassiceps [2] = assay: Antiparasitic activity against Taenia crassiceps cysts ORF strain assessed as cysts mortality at 0.28 uM after 11 days by Trypan blue exclusion test; type: functional
Taenia crassiceps [3] = assay: Antiparasitic activity against Taenia crassiceps cysts ORF strain assessed as cysts mortality at 1.70 uM after 11 days by Trypan blue exclusion test; type: functional
Taenia crassiceps [4] = assay: Antiparasitic activity against Taenia crassiceps cysts WFU strain assessed as cysts mortality at 0.28 uM after 11 days by Trypan blue exclusion test; type: functional
Taenia crassiceps [5] = assay: Antiparasitic activity against Taenia crassiceps cysts WFU strain assessed as cysts mortality at 1.70 uM after 11 days by Trypan blue exclusion test; type: functional

Structure (SMILES)	logP [1]	Activity (Taenia crassiceps [2])	Activity (Taenia crassiceps [3])	Activity (Taenia crassiceps [4])	Activity (Taenia crassiceps [5])
CNC(=O)c1ccc2[nH]c(NC(=O)OC)nc2c1	0.68	0%	0%		
COC(=O)Nc1nc2cc(C(=O)N3CCCCC3)ccc2[nH]1	1.65	37%	62%	9.3%	16.7%
COC(=O)Nc1nc2cc(Oc3cccc4ccccc34)c(Cl)cc2[nH]1	3.56				
COC(=O)Nc1nc2cc(C(=O)OCc3ccc([N+](=O)[O-])cc3)ccc2[nH]1	3.12	41%	68%	22.6%	26%
CSc1nc2cc(C(=O)N3CCN(C)CC3)ccc2[nH]1		0%	0%		
CSc1nc2cc(C(=O)N3CCCCC3)ccc2[nH]1		0%	0%		
CSc1nc2cc(C(=O)N3CCCCC3)c(Cl)cc2[nH]1		0%	0%		
CCCSc1ccc2[nH]c(N(C)C(=O)OC)nc2c1		0%	0%		
CCCSc1ccc2nc(NC(=O)OC)n(C)c2c1		0%	0%		
CCCSc1ccc2c(c1)nc(NC(=O)OC)n2C		0%	0%		
CSc1nc2cc(C(=O)N3CCC(C)CC3)ccc2[nH]1		0%	0%		
CSc1nc2cc(C(=O)N3CCC(C)CC3)c(Cl)cc2[nH]1		0%	0%		
COC(=O)Nc1nc2cc(Cl)ccc2[nH]1	2.09	15%	23%	5%	8%
CCC[S+]([O-])c1ccc2[nH]c(NC(=O)OC)nc2c1 (stereo not given) [ALBENDAZOLE OXIDE]	1.54	46%	88%	25%	35%
